Reference: patent US11857600B2, “GPCR heteromer inhibitors and uses thereof” (GPCR THERAPEUTICS, INC., priority 2017, dated 2024)
Entries after “also recorded” stand apart in the source; their conditions may differ. Like-named read-outs stand apart in the source and are kept apart here. Values belong to the molecule of their own block, whether it stands above or below them. Where a SMILES comes first, the peptide text is derived from it. Bridges are numbered along the chain shown (N, C = ends). [ ]: non-standard residue; d: D form. The star is where a group is joined. 2Nal = N[C@@H](Cc1ccc2ccccc2c1)C(=O)O; Benzoyl(4-F) = O=C(c1ccc(F)cc1)*; Cit = NC(=O)NCCC[C@H](N)C(=O)O

Assays:
CXCR4-TACR3 heteromer = molecular target: T1, CXCR4-TACR3 heteromer (Homo sapiens, UniProt P29371+P61073); assay: Calcium mobilization assay, enhanced signaling of CXCR4-TACR3 heteromer in MDA-MB-231 cells; format: cell-based; settings: CXCR4 inhibitor only; CXCL12 20 nM and neurokinin B 0.3 nM; read-out: IC50 of Ca2+ response, TACR3 inhibitor: None
T1 construct: expressed in transfected cells
Method: (§1) Inhibitors were treated 30 min before agonist stimulation. Ca2+ mobilization was measured as described in FIG. 5, and IC50 values were calculated using GraphPad Prism software.

CXCR4-HRH1 heteromer = molecular target: T2, CXCR4-HRH1 heteromer (Homo sapiens, UniProt P35367+P61073); assay: Calcium mobilization assay, enhanced signaling of CXCR4-HRH1 heteromer in MDA-MB-231 cells; format: cell-based; settings: CXCR4 inhibitor only; CXCL12 20 nM and Histamine 1 nM; read-out: IC50 of Ca2+ response, HRH1 inhibitor: None
T2 construct: expressed in transfected cells
Method: (§2) The efficiency of CXCR4 inhibitors in suppressing the enhanced signaling of CXCR4-HRH1 heteromer was measured in the absence or presence of the representative HRH1 inhibitors Hydroxyzine, Prometazine, or Cyproheptadine (Table 8). […] Inhibitors were treated 30 min before agonist stimulation. Ca2+ mobilization was measured as described in FIG. 5, and IC50 values were calculated using GraphPad Prism software.

CXCR4-ADRB2 heteromer = molecular target: T3, CXCR4-ADRB2 heteromer (Homo sapiens, UniProt P07550+P61073); assay: Calcium mobilization assay, enhanced signaling of CXCR4-ADRB2 heteromer in MDA-MB-231 cells; format: cell-based; settings: CXCR4 inhibitor only
T3 construct: expressed in transfected cells

CXCR4-CALCR heteromer = CXCR4-CALCR heteromer (Homo sapiens, UniProt P30988+P61073); assay: Calcium mobilization assay, enhanced signaling of CXCR4-CALCR heteromer in MDA-MB-231 cells; format: cell-based; settings: CXCR4 inhibitor only; CXCL12 20 nM and calcitonin 100 nM; read-out: IC50 of Ca2+ response, CALCR inhibitor: None
Method: as §1

[1] = molecular target: CXCR4-ADCYAP1R1 heteromer (Homo sapiens, UniProt P41586+P61073); assay: Calcium mobilization assay, enhanced signaling of CXCR4-ADCYAP1R1 heteromer in MDA-MB-231 cells; format: cell-based; settings: CXCR4 inhibitor only; CXCL12 20 nM and PACAP-38 1 nM; read-out: IC50 of Ca2+ response, ADCYAP1R1 inhibitor: None
Method: as §1

CXCR4 = molecular target: T4, CXCR4 (Homo sapiens, UniProt P61073); assay: Calcium mobilization assay in MDA-MB-231 cells expressing CXCR4 alone; format: cell-based; settings: cells expressing CXCR4 alone; CXCR4 inhibitor only; stimulated with CXCL12 20 nM and Salmeterol 1 μM; read-out: CXCR4 IC50 of Ca2+ response
T4 construct: expressed in transfected cells
Method: The cells were then stained with Cal-6 for 2 hours and stimulated with CXCR4 agonsit (CXCL12; 20 nM) and ADRB2 agonist (Salmeterol; 1 μM).

CXCR4-MLNR heteromer = molecular target: T5, CXCR4-MLNR heteromer (Homo sapiens, UniProt O43193+P61073); assay: Calcium mobilization assay, enhanced signaling of CXCR4-MLNR heteromer in MDA-MB-231 cells; format: cell-based; settings: CXCR4 inhibitor only; CXCL12 20 nM and motilin 0.2 nM; read-out: IC50 of Ca2+ response, MLNR inhibitor: None
T5 construct: expressed in transfected cells
Method: as §1

CXCR4-EDNRB heteromer = molecular target: T6, CXCR4-EDNRB heteromer (Homo sapiens, UniProt P24530+P61073); assay: Calcium mobilization assay, enhanced signaling of CXCR4-EDNRB heteromer in MDA-MB-231 cells; format: cell-based; settings: CXCR4 inhibitor only; CXCL12 20 nM and BQ3020 0.5 nM; read-out: IC50 of Ca2+ response, EDNRB inhibitor: None
T6 construct: expressed in transfected cells
Method: as §2, with “CXCR4-EDNRB” for “CXCR4-HRH1”, “EDNRB” for “HRH1”, “ambrisentan” for “Hydroxyzine, Prometazine,”, “bosentan” for “Cyproheptadine”, “12).” for “8).”

CXCR4-C5AR1 heteromer = molecular target: T7, CXCR4-C5AR1 heteromer (Homo sapiens, UniProt P21730+P61073); assay: Calcium mobilization assay, enhanced signaling of CXCR4-C5AR1 heteromer in MDA-MB-231 cells; format: cell-based; settings: CXCR4 inhibitor only; CXCL12 20 nM and C5a 0.03 nM; read-out: IC50 of Ca2+ response, C5AR1 inhibitor: None
T7 construct: expressed in transfected cells
Method: as §1

CXCR4-NTSR1 heteromer = molecular target: T8, CXCR4-NTSR1 heteromer (Homo sapiens, UniProt P30989+P61073); assay: Calcium mobilization assay, enhanced signaling in MDA-MB-231 cells co-expressing CXCR4 and NTSR1; format: cell-based; settings: antagonist 1 μM; FIG. 8K
T8 construct: expressed in transfected cells

MDA-MB-231 cells = assay: Chemotactic migration assay; format: cell-based, human; settings: cells transduced with 1 MOI CXCR4 lentivirus; CXCL12 30 nM, histamine 50 nM; pyrilamine 1 μM
Method: Chemotaxis was quantified by counting the migrated cells on the lower surface of the membrane of 10 fields per chamber. (FIG. 19A) A representative picture of each group. […] The data represent mean±SEM (n=3 or 5). Statistically significant differences were determined by Student's t test. *P<0.05.
Since MDA-MB-231 cells express about twice more HRH1 mRNA compared with CXCR4 mRNA when measured by RT-qPCR, the MDA-MB-231 cells were transduced with small amount of lentivirus encoding CXCR4 (1 MOI) and chemotactic migration of the cells toward CXCL12 and […] was measured (FIGS. 19A and 19B).
Transwell plates (8 μm pore size polycarbonate membrane, 6.5-mm diameter) were coated with 50 μg/mL collagen for 2 h at 37° C. (Corning Inc.). MDA-MB-231 cells were serum-starved 24 h and then plated in serum-free medium containing 0.5% BSA in the top chamber (20,000 cells/100 μL). Antagonists or inverse agonists were added to the cells 30 min before plating the cells in the transwell plates. Attractants were added in the bottom chamber. Antagonists or inverse agonists were also included in the bottom chamber. After 3 h at 37° C., cells on the top transwell membrane were removed using a cotton swab, fixed, and stained with 0.1% Crystal violet. Chemotaxis was quantified by counting the migrated cells on the lower surface of the membrane of 10 fields per chamber at 10× objective.

T3 sequence (P61073 whole entry): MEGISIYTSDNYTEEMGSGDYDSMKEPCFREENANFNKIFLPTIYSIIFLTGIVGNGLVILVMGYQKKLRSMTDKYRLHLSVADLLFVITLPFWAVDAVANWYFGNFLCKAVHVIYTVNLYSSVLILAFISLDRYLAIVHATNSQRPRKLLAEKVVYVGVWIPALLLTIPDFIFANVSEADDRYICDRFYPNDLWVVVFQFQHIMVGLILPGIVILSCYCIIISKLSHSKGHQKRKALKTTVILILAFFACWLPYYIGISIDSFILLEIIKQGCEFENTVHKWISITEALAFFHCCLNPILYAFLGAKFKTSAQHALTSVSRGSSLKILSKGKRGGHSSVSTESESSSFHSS
T3 sequence (P07550 whole entry): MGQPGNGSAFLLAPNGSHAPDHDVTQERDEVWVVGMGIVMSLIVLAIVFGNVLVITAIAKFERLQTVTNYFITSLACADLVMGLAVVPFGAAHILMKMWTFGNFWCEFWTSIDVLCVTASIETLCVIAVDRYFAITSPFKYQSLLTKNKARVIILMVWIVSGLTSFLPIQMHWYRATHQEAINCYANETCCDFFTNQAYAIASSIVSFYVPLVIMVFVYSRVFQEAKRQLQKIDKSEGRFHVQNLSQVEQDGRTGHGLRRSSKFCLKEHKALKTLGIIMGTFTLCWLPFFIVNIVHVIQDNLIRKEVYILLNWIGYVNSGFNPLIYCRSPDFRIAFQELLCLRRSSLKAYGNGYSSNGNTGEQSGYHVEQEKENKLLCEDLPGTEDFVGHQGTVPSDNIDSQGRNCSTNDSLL
T8 sequence (P61073 whole entry): as the sequence (P61073 whole entry) above
T8 sequence (P30989 whole entry): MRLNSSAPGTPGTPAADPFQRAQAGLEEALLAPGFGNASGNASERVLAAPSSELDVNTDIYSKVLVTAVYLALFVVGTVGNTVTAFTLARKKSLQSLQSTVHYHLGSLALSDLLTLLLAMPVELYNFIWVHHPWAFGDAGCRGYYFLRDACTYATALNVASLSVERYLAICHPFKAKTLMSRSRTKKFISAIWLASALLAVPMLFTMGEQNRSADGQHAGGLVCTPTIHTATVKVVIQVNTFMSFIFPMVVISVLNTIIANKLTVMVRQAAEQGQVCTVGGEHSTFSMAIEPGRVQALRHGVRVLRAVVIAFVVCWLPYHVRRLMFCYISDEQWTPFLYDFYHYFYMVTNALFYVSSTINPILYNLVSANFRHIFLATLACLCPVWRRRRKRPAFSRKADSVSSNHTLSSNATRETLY
T7 sequence (P61073 whole entry): as the sequence (P61073 whole entry) above
T7 sequence (P21730 whole entry): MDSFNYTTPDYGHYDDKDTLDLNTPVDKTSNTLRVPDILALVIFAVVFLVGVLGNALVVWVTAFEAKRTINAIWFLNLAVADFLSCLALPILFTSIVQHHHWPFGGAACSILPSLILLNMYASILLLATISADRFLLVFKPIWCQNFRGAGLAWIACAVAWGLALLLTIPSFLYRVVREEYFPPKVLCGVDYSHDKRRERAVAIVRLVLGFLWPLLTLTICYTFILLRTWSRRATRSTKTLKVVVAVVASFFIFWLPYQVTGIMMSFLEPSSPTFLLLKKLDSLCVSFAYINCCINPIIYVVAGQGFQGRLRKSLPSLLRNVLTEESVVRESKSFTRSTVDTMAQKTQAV
T5 sequence (P61073 whole entry): as the sequence (P61073 whole entry) above
T5 sequence (O43193 whole entry): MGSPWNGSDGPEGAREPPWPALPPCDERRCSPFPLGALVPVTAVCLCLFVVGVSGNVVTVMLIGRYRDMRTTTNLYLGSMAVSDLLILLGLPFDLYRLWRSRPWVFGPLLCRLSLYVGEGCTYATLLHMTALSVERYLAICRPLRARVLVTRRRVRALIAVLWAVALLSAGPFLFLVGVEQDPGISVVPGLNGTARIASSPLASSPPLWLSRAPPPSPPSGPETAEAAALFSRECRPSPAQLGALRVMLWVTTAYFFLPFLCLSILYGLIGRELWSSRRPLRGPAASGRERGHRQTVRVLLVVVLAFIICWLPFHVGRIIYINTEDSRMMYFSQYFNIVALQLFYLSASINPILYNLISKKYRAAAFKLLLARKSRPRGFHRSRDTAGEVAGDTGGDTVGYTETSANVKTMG
T6 sequence (P61073 whole entry): as the sequence (P61073 whole entry) above
T6 sequence (P24530 27-442): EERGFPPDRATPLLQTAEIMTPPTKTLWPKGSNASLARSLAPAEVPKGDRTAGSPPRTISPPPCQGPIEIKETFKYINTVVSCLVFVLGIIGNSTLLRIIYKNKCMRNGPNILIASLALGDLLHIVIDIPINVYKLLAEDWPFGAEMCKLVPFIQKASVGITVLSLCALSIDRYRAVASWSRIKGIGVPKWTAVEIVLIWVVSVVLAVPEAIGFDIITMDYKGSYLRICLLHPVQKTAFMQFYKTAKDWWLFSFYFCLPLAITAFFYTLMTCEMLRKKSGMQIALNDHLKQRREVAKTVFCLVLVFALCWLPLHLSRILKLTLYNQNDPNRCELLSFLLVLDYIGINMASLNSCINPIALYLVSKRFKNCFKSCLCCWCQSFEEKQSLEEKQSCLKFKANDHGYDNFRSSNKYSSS
Sequence of CXCR4-CALCR heteromer (P61073 whole entry): as the sequence (P61073 whole entry) above
Sequence of CXCR4-CALCR heteromer (P30988 25-474): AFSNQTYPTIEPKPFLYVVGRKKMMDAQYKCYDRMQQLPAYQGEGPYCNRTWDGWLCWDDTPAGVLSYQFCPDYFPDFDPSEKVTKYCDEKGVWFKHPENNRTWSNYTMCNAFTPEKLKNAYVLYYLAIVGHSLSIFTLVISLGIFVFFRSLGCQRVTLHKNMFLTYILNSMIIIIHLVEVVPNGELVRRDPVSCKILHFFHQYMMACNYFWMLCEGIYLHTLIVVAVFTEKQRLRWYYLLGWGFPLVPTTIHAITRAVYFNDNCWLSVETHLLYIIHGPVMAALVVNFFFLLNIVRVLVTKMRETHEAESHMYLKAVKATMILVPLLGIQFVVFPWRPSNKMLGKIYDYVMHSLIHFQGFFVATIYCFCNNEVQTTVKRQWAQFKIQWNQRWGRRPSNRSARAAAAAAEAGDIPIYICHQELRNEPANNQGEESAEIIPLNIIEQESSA
T4 sequence (P61073 whole entry): as the sequence (P61073 whole entry) above
T1 sequence (P61073 whole entry): as above
T1 sequence (P29371 whole entry): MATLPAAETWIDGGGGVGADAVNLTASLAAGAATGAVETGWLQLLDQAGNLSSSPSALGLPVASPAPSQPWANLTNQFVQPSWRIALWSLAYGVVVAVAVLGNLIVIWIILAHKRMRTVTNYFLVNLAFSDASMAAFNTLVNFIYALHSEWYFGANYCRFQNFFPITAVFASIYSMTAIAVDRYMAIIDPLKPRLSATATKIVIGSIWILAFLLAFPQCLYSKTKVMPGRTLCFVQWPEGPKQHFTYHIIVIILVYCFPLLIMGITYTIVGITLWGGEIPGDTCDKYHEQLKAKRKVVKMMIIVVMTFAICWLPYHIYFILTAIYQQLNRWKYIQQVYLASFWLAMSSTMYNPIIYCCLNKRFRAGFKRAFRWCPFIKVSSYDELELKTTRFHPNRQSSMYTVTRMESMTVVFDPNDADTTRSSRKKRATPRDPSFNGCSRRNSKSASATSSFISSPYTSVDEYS
T2 sequence (P61073 whole entry): as the sequence (P61073 whole entry) above
T2 sequence (P35367 whole entry): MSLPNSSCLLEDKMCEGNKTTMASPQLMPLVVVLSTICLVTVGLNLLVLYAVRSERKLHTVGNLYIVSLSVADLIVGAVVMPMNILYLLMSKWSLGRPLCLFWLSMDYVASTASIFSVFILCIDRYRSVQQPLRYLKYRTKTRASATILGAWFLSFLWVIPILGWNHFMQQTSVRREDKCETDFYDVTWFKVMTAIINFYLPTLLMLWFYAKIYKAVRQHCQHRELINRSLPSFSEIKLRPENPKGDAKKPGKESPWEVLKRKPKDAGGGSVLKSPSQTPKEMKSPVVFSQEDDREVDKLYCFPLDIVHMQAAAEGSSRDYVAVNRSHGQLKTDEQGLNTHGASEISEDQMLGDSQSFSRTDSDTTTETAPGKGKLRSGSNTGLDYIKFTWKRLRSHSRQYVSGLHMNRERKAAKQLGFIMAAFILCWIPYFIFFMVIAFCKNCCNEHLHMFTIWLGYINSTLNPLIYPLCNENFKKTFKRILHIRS
Sequence of CXCR4-ADCYAP1R1 heteromer (P61073 whole entry): as the sequence (P61073 whole entry) above
Sequence of CXCR4-ADCYAP1R1 heteromer (P41586 21-468): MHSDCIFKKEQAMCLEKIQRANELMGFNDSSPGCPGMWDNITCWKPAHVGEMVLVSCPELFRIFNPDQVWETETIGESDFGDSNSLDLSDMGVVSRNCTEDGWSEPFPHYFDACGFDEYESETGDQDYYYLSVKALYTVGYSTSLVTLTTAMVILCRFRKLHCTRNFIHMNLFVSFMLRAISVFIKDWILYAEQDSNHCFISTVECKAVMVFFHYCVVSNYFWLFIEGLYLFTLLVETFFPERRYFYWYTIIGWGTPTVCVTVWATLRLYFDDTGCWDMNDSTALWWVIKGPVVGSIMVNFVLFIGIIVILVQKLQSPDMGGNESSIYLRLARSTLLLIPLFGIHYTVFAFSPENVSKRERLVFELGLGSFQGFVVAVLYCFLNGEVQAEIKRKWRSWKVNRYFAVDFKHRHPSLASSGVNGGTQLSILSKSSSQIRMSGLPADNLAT

IC50 (CXCR4-TACR3 heteromer): 1.5 ± 0.42 µM
IC50 (CXCR4-HRH1 heteromer): 0.232 ± 0.0919 µM
IC50 (CXCR4-ADRB2 heteromer; CXCR4 + ADRB2 (−Carvedilol) IC50 of Ca2+ response, stimulated with CXCL12 20 nM and Salmeterol 1 μM): 0.13 ± 0.0498 µM
IC50 (CXCR4-ADRB2 heteromer; Table 7, CXCL12 20 nM and Salmeterol 1 μM, read-out: IC50 of Ca2+ response, ADRB2 inhibitor: None): 0.124 ± 0.0769 µM
IC50 (CXCR4-CALCR heteromer): 1.04 ± 0.757 µM
IC50 [1]: 0.213 ± 0.143 µM
IC50 (CXCR4): 0.434 ± 0.00438 µM
IC50 (CXCR4-MLNR heteromer): 0.644 ± 0.163 µM
IC50 (CXCR4-EDNRB heteromer): 2.68 ± 3.93 µM
IC50 (CXCR4-C5AR1 heteromer): 0.118 ± 0.0565 µM
SMILES: N=C(N)NCCC[C@H](NC(=O)[C@@H]1CSSC[C@H](NC(=O)[C@H](Cc2ccc3ccccc3c2)NC(=O)[C@H](CCCNC(=N)N)NC(=O)[C@H](CCCNC(=N)N)NC(=O)c2ccc(F)cc2)C(=O)N[C@@H](Cc2ccc(O)cc2)C(=O)N[C@@H](CCCNC(N)=O)C(=O)N[C@@H](CCCCN)C(=O)N[C@H](CCCCN)C(=O)N2CCC[C@H]2C(=O)N[C@@H](Cc2ccc(O)cc2)C(=O)N[C@@H](CCCNC(=N)N)C(=O)N[C@@H](CCCNC(N)=O)C(=O)N1)C(N)=O [BKT140] ({Benzoyl(4-F)}-RR[2Nal]CY[Cit]K[dK]PYR[Cit]CR-NH2; disulfide 4-13; C-terminus assumed)

SMILES: COc1cccc(OC)c1-c1cc(C(=O)NC2(C(=O)O)C3CC4CC(C3)CC2C4)nn1-c1ccnc2cc(Cl)ccc12 (stereo not drawn) [meclinertant]
suppression of enhanced calcium signaling upon co-stimulation with CXCL12 and NTSR1 agonist (CXCR4-NTSR1 heteromer): suppressed the enhanced calcium signaling significantly

SMILES: COc1ccc(CN(CCN(C)C)c2ccccn2)cc1 [pyrilamine]
effect on enhanced migration upon co-stimulation with CXCL12 and histamine (MDA-MB-231 cells): completely abolished the enhanced response; also recorded: failed to enhance the cell migration elicited by CXCL12
